Experimental data from patent publication US20090088371A1, “COMBINATION THERAPY WITH SYK KINASE INHIBITOR” (Rigel Pharmaceuticals, Inc., priority 2007, published 2009).
Values joined by “and” are separate entries in the source; they are usually repeats but may differ in a detail not shown here. Identical values can stand only once. “Also recorded” adds a separate entry of the source.

Key:
CD-1 mice = assay: Antibody-mediated thrombocytopenia in CD-1 mice, platelet counts by flow cytometry (Examples 2 and 4, FIG. 2, Table 1); assay type: in vivo, mouse; settings: for Individual Animal Platelet Count / Platelet Count Mean: 24 hours following anti-αIIb treatment; for Individual Animal Platelet Count: one value per animal; for Platelet Count Mean: n=6
Experimental: CD-1 mice, approximately 10 weeks of age, were obtained from Charles River (Montreal, PQ, Canada). All mice, with the exception of the naïve group, were injected with 2 μg rat anti-mouse GPIIb (also referred to as anti-integrin αIIb or anti-CD41) antibody (specific for GPIIb, clone MWReg30, rat IgG1, κ, PharMingen, Missassuaga, ON, Canada) in 200 μL PBS on Day 1. Platelets were enumerated on Day 2 (24 hours following injection of anti-platelet antibody).
During the 3 day experiment (Day O— Day 2), Compound I-treated mice were given the indicated doses of Compound 1 by oral gavage once on Day 0, twice on Day 1 and once on Day 2. Control animals were given an equal volume of vehicle. For the IVIg group, mice were injected intraperitoneally (IP) with 2 g/kg Gamunex IVIg (Bayer, Elkhart, Ill.) once on Day 0. Two concentrations of Compound 1 (3.08 and 4.94 mg/mL) were formulated with 0.1% CMC Na-0.1% Methylparaben-0.02% Propylparaben-H2O. One day prior to platelet depletion, treatment began. Mice were treated orally twice daily (bid.) with Compound 1 (30.8 or 49.4 mg/kg of body weight per dose, n=6) at a dose volume of 10 mL/kg. IVIg (2 g/kg) was used as a reference agent and was administered IP as described previously (Crow et al., 2003).
Two hours following the last treatment of Compound 1 on Day 2, all mice were bled via the saphenous vein; 50 μL of blood was collected into 450 μL PBS/1% EDTA. The blood was further diluted to a final dilution of 1/12,000 in PBS/1% EDTA. Platelets were enumerated by flow cytometry according to Crow et al., 2001. Briefly, the samples were acquired for 2 minutes on a flow-rate-calibrated FACScan flow cytometer (Becton-Dickinson, San Jose, Calif.), using forward scatter (FSC) versus side scatter (SSC) to gate platelets.
All values in the text and figures are expressed as mean±standard error of the mean (SEM) for n=6 mice/group unless noted otherwise, and n represents the number of mice. Differences between treatment and control groups were compared using the 2-tailed Student's t-test using GraphPad Prism Inc., software ver. 4.0 (San Diego, Calif., USA).
On Day 0, mice were pre-treated with nothing (Nil), 0.25 mL Vehicle twice (8 hrs apart) or the indicated doses of Compound 1 (in 0.25 mL vehicle) or 2 g/kg IVIg. On Day 1, the above treatments were repeated except for IVIg. All mice also received 2 μg anti-platelet antibody on Day 1. On Day 2, all mice were bled for platelet enumeration by flow cytometry as described. n=6 mice per group. Data are expressed as mean±SEM.

C57BL/6 mice = assay: Anti-CD41 antibody-induced thrombocytopenia in C57BL/6 mice, platelet counts (Examples 1 and 3, FIG. 1); assay type: in vivo, mouse; settings: for Platelet count versus mice treated with CD41 antibody alone: first dose 30 minutes prior to platelet-depleting antibody, 24 h
Experimental: On Day 1 of each study, mice were rendered thrombocytopenic by injection with rat anti-mouse CD41 antibody (IgG1, Clone MWReg30) by the intraperitoneal (IP) route. The platelet depleting antibody (rat anti-mouse GPIIb, also referred to as anti-integrin αIIb or anti-CD41) was administered […] treatment with Compound I on Day 1. Mice in control groups either received nothing (naïve), saline only, or an isotype-matched irrelevant control antibody (nonspecific rat anti-mouse IgG1, Clone R3-34, BD, San Jose, Calif.).
Mice received vehicle or Compound 1 at various dose levels (0, 20, 40, or 80 mg/kg, PO, 5 mL/kg) 30 minutes prior to the platelet depleting antibody, then again 8 h, 16 h, and 23 h after induction of thrombocytopenia. At 24 h after administration of the anti-CD41 platelet-depleting antibody, blood was harvested from all groups by cardiocentesis to assess the platelet counts or drug levels in the plasma. An aliquot from each sample was transferred to a plasma separator tube and the separated plasma was stored at −80° C. for analysis. Blood was placed indirectly on ice for delivery. Platelet enumeration was performed using Bayer Advia 120 Bayer Advia 120 hematology system (Bayer, Tarrytown, N.Y.) by Quality Clinical Laboratories (QCL, Mountain View, Calif.).
Systemic drug exposures were determined at sacrifice with the final dose being given on the evening of Day 1 (8 h prior to blood collection) or on the morning of Day 2 (1 h prior to blood collection). Satellite animals treated with Compound 1 and not receiving platelet-depleting antibody were added to obtain a more complete PK profile.
Significant differences between vehicle and Compound I-treated groups were determined statistically using the GraphPad Prism 4.0® software package, unless otherwise stated. In general, Prism 4.0® uses the standard calculations as detailed in D. G. Altman, Practical Statistics for Medical Research, 1991, Chapman and Hall. Platelet count data was analyzed using Kruskal Wallis Nonparametric test with Dunn's multiple group post-hoc test to compare the rank sums, unless otherwise noted.
In FIG. 1, each data point represents platelet counts for an individual mouse administered a single IP injection of 5 μg of CD41 platelet depleting antibody (n=11-12 per group). Mice were bled 24 hours post antibody administration and platelet counts were performed using Bayer Advia 120 analyzer. Mice were given vehicle or indicated doses of Compound 1. Platelet-depleting antibody was administered 30 minutes after the first Compound 1 or vehicle dose on Day 1.

## COc1cc(Nc2ncc(F)c(Nc3ccc4c(n3)N(COP(=O)(O)O)C(=O)C(C)(C)O4)n2)cc(OC)c1OC [Compound 1]
CD-1 mice; 30.8 mg/kg group, p=0.001, Day 2
  Inhibition of platelet depletion compared with vehicle alone: highly significant
CD-1 mice; 49.4 mg/kg group, p=0.008, Day 2
  Inhibition of platelet depletion compared with vehicle alone: highly significant
CD-1 mice; 30.8 versus 49.4 mg/kg, difference not significant (p=0.9)
  Dose dependence of the effect on platelet counts: did not appear to be dose-dependent
CD-1 mice; Compound 1 30.8 mg/kg oral gavage, CD-1 mice, 30.8 mg/kg
  Individual Animal Platelet Count: 3.92e+11 L⁻¹ and 3.98e+11 L⁻¹ and 4.57e+11 L⁻¹ and 5.84e+11 L⁻¹ and 6.02e+11 L⁻¹ and 6.79e+11 L⁻¹
CD-1 mice; Compound 1 30.8 mg/kg oral gavage
  Platelet Count Mean: 5.19e+11 L⁻¹
CD-1 mice; Compound 1 49.4 mg/kg oral gavage, CD-1 mice, 49.4 mg/kg
  Individual Animal Platelet Count: 4.11e+11 L⁻¹ and 4.37e+11 L⁻¹ and 4.33e+11 L⁻¹ and 4.98e+11 L⁻¹ and 9.31e+11 L⁻¹ and 5.1e+11 L⁻¹
CD-1 mice; Compound 1 49.4 mg/kg oral gavage
  Platelet Count Mean: 5.37e+11 L⁻¹
CD-1 mice; Compound 1 treatment prior to and following CD41 platelet depleting antibody, CD-1 mice, Day 2
  Effect on platelet depletion by anti-platelet antibody: reduced depletion of platelets; also recorded: inhibited the reduction in platelet count
C57BL/6 mice; 20 mg/kg PO with platelet depleting antibody, p<0.01
  Platelet count versus the 80 mg/kg group: significantly lower
C57BL/6 mice; 40 mg/kg PO, p<0.05
  Platelet count versus mice treated with CD41 antibody alone: significantly higher platelet count
C57BL/6 mice; 80 mg/kg PO, p<0.001
  Platelet count versus mice treated with CD41 antibody alone: significantly higher platelet count
C57BL/6 mice; 20, 40, 80 mg/kg PO, C57BL/6 mice
  Dose dependence of inhibition of platelet depletion: dose-dependent inhibition of platelet depletion
